Results published in ChEMBL document CHEMBL4819031, “Sesquiterpenoids from the Aerial Parts of Salvia plebeia with Inhibitory Activities on Proprotein Convertase Subtilisin/Kexin Type 9 Expression” (J Nat Prod, 2021).
Active and inactive are the calls of the source. The rule behind the calls is not given here.

Columns and labels:
[1] = target: PCSK9/LDLR (Homo sapiens) (UniProt Q8NBP7+P01130); test: Inhibition of PCSK9 (unknown origin) interaction with LDLR (unknown origin) by ELISA; assay type: protein assay
HepG2 [2] = test: Up regulation of LDLR protein expression in human HepG2 cells at 10 to 50 uM incubated for 24 hrs by Western blotting analysis; assay type: functional, cell-based; conditions: dose 10-50 µM
HepG2 [3] = test: Down regulation of PCSK9 protein expression in human HepG2 cells at 10 to 50 uM incubated for 24 hrs by Western blotting analysis; assay type: functional, cell-based; conditions: dose 10-50 µM
HepG2 [4] = test: Down regulation of PCSK9 mRNA expression in human HepG2 cells at 50 uM incubated for 24 hrs by SYBR green dye-based qRT-PCR analysis; assay type: functional, cell-based
[5] = Down regulation of PCSK9 mRNA expression in human HepG2 cells incubated for 24 hrs by SYBR green dye-based qRT-PCR analysis; assay type: functional, cell-based; conditions: HepG2, 24 h

Sequence of PCSK9/LDLR (Homo sapiens) (P01130 22-860 partner limits assumed): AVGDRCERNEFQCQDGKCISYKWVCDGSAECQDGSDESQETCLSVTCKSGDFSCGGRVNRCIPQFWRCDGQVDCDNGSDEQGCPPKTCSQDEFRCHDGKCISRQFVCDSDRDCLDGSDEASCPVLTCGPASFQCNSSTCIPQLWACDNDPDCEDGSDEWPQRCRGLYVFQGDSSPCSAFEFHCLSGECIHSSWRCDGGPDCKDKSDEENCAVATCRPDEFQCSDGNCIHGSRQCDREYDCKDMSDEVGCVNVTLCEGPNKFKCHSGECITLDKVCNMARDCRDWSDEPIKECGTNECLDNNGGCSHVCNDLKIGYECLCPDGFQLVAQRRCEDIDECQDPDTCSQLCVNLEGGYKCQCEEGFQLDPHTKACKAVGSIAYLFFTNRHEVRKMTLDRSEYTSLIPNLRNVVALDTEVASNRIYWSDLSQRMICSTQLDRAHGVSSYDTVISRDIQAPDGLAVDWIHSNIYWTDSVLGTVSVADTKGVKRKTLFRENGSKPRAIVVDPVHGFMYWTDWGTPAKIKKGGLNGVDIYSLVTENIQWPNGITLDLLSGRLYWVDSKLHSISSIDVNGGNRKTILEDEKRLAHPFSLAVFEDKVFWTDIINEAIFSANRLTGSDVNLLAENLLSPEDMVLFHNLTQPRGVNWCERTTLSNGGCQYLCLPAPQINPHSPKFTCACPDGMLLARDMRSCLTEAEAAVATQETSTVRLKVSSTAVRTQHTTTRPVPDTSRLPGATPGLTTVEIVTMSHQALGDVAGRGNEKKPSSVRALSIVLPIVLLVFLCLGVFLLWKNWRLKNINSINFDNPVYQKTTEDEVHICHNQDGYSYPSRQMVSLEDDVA
Sequence of PCSK9/LDLR (Homo sapiens) (Q8NBP7 31-152 limits assumed): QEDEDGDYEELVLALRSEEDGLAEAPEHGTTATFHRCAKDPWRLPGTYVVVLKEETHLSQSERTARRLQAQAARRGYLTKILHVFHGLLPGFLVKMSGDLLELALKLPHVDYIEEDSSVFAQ
Sequence of PCSK9/LDLR (Homo sapiens) (Q8NBP7 153-692 limits assumed): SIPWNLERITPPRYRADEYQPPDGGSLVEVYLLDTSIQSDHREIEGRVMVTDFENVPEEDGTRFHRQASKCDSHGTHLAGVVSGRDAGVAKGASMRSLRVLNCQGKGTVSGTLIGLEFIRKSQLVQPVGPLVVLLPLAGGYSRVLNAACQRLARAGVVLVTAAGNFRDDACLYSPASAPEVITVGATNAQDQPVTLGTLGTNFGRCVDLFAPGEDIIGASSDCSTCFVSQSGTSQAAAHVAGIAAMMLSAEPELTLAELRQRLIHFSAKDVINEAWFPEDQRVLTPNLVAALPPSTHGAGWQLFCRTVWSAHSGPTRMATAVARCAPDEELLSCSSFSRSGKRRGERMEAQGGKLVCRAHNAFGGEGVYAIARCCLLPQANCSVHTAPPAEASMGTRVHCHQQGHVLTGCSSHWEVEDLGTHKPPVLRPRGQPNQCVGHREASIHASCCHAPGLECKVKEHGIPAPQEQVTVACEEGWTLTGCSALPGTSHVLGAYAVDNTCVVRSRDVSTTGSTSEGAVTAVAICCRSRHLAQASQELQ

Compound: COc1c(O)cc2c(c1O)C(=O)C[C@@H](c1ccc(O)cc1)O2
- inhibition [1]: inactive

Compound: CO[C@@H]1CC(=O)[C@H](C)[C@H]2C/C(=C(\C)C(=O)O)C[C@@]21C
- Activity (HepG2 [2]): Active
- Activity (HepG2 [3]): Active
- Activity (HepG2 [4]): Active
- IC50 [5]: 24.4 µM
- inhibition [1]: inactive

Compound: CC(=O)O[C@H]1C(=O)C=C(C)[C@H]2CC3=C(C)C(=O)O[C@@H]3C[C@@]21C
- inhibition [1]: inactive

Compound: CC1=C2C[C@@H]3[C@@H](C)C(=O)C=C[C@@]3(C)C[C@@]2(O)OC1=O
- Activity (HepG2 [2]): Active
- Activity (HepG2 [3]): Active
- Activity (HepG2 [4]): Active
- IC50 [5]: 27.8 µM
- inhibition [1]: inactive

Compound: CC1=CC(=O)[C@H](O)[C@@]2(C)C=C3OC(=O)C(C)=C3C[C@H]12
- inhibition [1]: inactive

Compound: CO[C@@]12C[C@]3(C)[C@H](O)C[C@H](OC(C)=O)[C@H](C)[C@H]3CC1=C(C)C(=O)O2
- inhibition [1]: inactive

Compound: CC(=O)O[C@H]1C(=O)C=C(C)[C@H]2CC3=C(C)C(=O)O[C@]3(O)C[C@@]21C
- inhibition [1]: inactive

Compound: CC(=O)O[C@H]1C[C@H](O)[C@]2(C)C[C@@H]3OC(=O)C(C)=C3C[C@H]2[C@@H]1C
- inhibition [1]: inactive

Compound: COC(=O)[C@H](C)[C@H]1C[C@]2(O)C(C)=CC(=O)[C@H](OC(C)=O)[C@]2(C)CC1=O
- inhibition [1]: inactive

Compound: CC(=O)O[C@H]1C[C@@H](O)[C@@]2(C)C[C@@]3(O)OC(=O)C(C)=C3C[C@@H]2[C@H]1C
- inhibition [1]: inactive

Compound: CO[C@]12C[C@@]3(C)[C@H](OC(C)=O)C(=O)C=C(C)[C@@H]3CC1=C(C)C(=O)O2
- Activity (HepG2 [4]): Active
- IC50 [5]: 25.2 µM
- inhibition [1]: inactive

Compound: CC1=C2C[C@@H]3[C@@H](C)[C@@H](O)C[C@@H](O)[C@@]3(C)C=C2OC1=O
- inhibition [1]: inactive

Compound: CC(=O)O[C@H]1C(=O)C=C(C)[C@H]2CC3=C(C)C(=O)OC3=C[C@@]21C
- inhibition [1]: inactive

Compound: CC(=O)O[C@H]1C[C@@H](O)[C@@]2(C)C=C3OC(=O)C(C)=C3C[C@@H]2[C@H]1C
- inhibition [1]: inactive

Compound: CC(=O)O[C@@H]1C(=O)C=C(C)[C@@H]2CC3=C(C)C(=O)O[C@@H]3C[C@@]12C
- inhibition [1]: inactive

Compound: COc1c(O)cc2oc(-c3ccc(O)cc3)cc(=O)c2c1O
- inhibition [1]: inactive

Compound: COc1ccc2cc3[n+](cc2c1OC)CCc1cc2c(cc1-3)OCO2 [BERBERINE CHLORIDE]
- IC50 [5]: 13.8 µM

Compound: CC(=O)O[C@H]1C[C@@H](O)[C@@]2(C)C[C@H](O)/C(=C(/C)C(=O)O)C[C@@H]2[C@H]1C
- inhibition [1]: inactive

Compound: CO[C@]12C[C@@]3(C)[C@H](CC1=C(C)C(=O)O2)C(C)=CC(=O)[C@@H]3OC(C)=O
- inhibition [1]: inactive

Compound: CC(=O)O[C@@H]1C(=O)C=C(C)[C@]2(O)C/C(=C(\C)C(=O)O)C(O)=C[C@]12C
- inhibition [1]: inactive
